Measurements published in patent US8048927B2 (Besins Healthcare Luxembourg, priority 2004, dated 2011).

Assay: pharmacokinetics of 4-hydroxy tamoxifen gel in healthy premenopausal women (Example 3)
Assay type: in vivo, human
Details: for Plasma concentration of 4-hydroxy tamoxifen, Mean ± SD / T(1stC < LOQ), first timepoint at which the plasma concentration was below the limit of quantification, Mean ± SD / Plasma concentration of 4-hydroxy tamoxifen, Range / AUC0-24, Mean ± SD / Cav = AUC0-24/24, Mean ± SD / Cmax, Mean ± SD / t1/2, Range / tmax, Mean ± SD: gel 57 mg/100 g; for T(1stC < LOQ), first timepoint at which the plasma concentration was below the limit of quantification, Mean ± SD: after last administration; for AUC0-24, Mean ± SD / Cav = AUC0-24/24, Mean ± SD / Cmax, Mean ± SD / t1/2, Range / tmax, Mean ± SD: last administration, day 25 of second cycle
Description: Each participant applied the gel daily for the duration of two menstrual cycles.
At the end of a menstrual cycle, each patient received a single dose, after which serial blood samples were collected at 0, 0.5, 1, 1.5, 2, 3, 4, 6, 12, 18, 24, 36, 48, and 72 hours.
On the first day of the following menstruation, treatment, which consisted of daily application of the gel over two menstrual cycles, began. Blood samples were collected 24 hours following the morning application of gel on days 7, 20 and 25 of the first and second cycles. On the last day of administration, day 25 of the second menstrual cycle, serial blood samples were collected prior to application and at 0.5, 1, 1.5, 2, 3, 4, 6, 12, 18, 24, 36, 48, and 72 hours after application of the gel.

## CCC(=C(c1ccc(O)cc1)c1ccc(OCCN(C)C)cc1)c1ccccc1 [4-hydroxy tamoxifen, 1-[4-(2-N-dimethylaminoethoxy)phenyl]-1-(4-hydroxyphenyl)-2-phenylbut-1-ene]
1 mg/day, First cycle Day 25, 24 hr after application
  Plasma concentration of 4-hydroxy tamoxifen, Mean ± SD: 0.0198 ± 0.0162 ng/mL
1 mg/day, Second cycle Day 7, 24 hr after application
  Plasma concentration of 4-hydroxy tamoxifen, Mean ± SD: 0.0222 ± 0.0164 ng/mL
1 mg/day, Second cycle Day 20, 24 hr after application
  Plasma concentration of 4-hydroxy tamoxifen, Mean ± SD: 0.0244 ± 0.0201 ng/mL
1 mg/day, Second cycle Day 25, 0 hr (24 hours after Day 24 application, prior to final application)
  Plasma concentration of 4-hydroxy tamoxifen, Mean ± SD: 0.0272 ± 0.0208 ng/mL
1 mg/day, Second cycle Day 25, 0.5 hr after application
  Plasma concentration of 4-hydroxy tamoxifen, Mean ± SD: 0.0259 ± 0.0187 ng/mL
1 mg/day, Second cycle Day 25, 1 hr after application
  Plasma concentration of 4-hydroxy tamoxifen, Mean ± SD: 0.0287 ± 0.0195 ng/mL
1 mg/day, Second cycle Day 25, 1.5 hr after application
  Plasma concentration of 4-hydroxy tamoxifen, Mean ± SD: 0.0256 ± 0.0178 ng/mL
1 mg/day, Second cycle Day 25, 2 hr after application
  Plasma concentration of 4-hydroxy tamoxifen, Mean ± SD: 0.0251 ± 0.018 ng/mL
1 mg/day, Second cycle Day 25, 3 hr after application
  Plasma concentration of 4-hydroxy tamoxifen, Mean ± SD: 0.0248 ± 0.0205 ng/mL
1 mg/day, Second cycle Day 25, 4 hr after application
  Plasma concentration of 4-hydroxy tamoxifen, Mean ± SD: 0.0268 ± 0.0233 ng/mL
1 mg/day, Second cycle Day 25, 6 hr after application
  Plasma concentration of 4-hydroxy tamoxifen, Mean ± SD: 0.025 ± 0.0182 ng/mL
1 mg/day, Second cycle Day 25, 12 hr after application
  Plasma concentration of 4-hydroxy tamoxifen, Mean ± SD: 0.0283 ± 0.0229 ng/mL
1 mg/day, Second cycle Day 25, 18 hr after application
  Plasma concentration of 4-hydroxy tamoxifen, Mean ± SD: 0.0234 ± 0.0174 ng/mL
1 mg/day, Second cycle Day 26, 24 hr after last application
  Plasma concentration of 4-hydroxy tamoxifen, Mean ± SD: 0.026 ± 0.0196 ng/mL
1 mg/day, Second cycle Day 26, 36 hr after last application
  Plasma concentration of 4-hydroxy tamoxifen, Mean ± SD: 0.0257 ± 0.0184 ng/mL
1 mg/day, Second cycle Day 27, 48 hr after last application
  Plasma concentration of 4-hydroxy tamoxifen, Mean ± SD: 0.022 ± 0.016 ng/mL
1 mg/day, Second cycle Day 28, 72 hr after last application
  Plasma concentration of 4-hydroxy tamoxifen, Mean ± SD: 0.0189 ± 0.0124 ng/mL
1 mg/day
  T(1stC < LOQ), first timepoint at which the plasma concentration was below the limit of quantification, Mean ± SD: 236 ± 72 h
  AUC0-24, Mean ± SD: 0.619 ± 0.466 ng·h/mL
  Cav = AUC0-24/24, Mean ± SD: 0.0258 ± 0.0194 ng/mL
  Cmax, Mean ± SD: 0.0351 ± 0.0224 ng/mL
  t1/2, Range: (58-118) hr
  tmax, Mean ± SD: 12.8 ± 14.9 h
1 mg/day, after the second cycle, +5 days
  Plasma concentration of 4-hydroxy tamoxifen, Mean ± SD: 0.0114 ± 0.0082 ng/mL
1 mg/day, after the second cycle, +8 days
  Plasma concentration of 4-hydroxy tamoxifen, Range: (0-14.8) pg/mL
2 mg/day, First cycle Day 1, 0 hr
  Plasma concentration of 4-hydroxy tamoxifen, Range: (0-0) pg/mL
2 mg/day, First cycle Day 7, 24 hr after application
  Plasma concentration of 4-hydroxy tamoxifen, Mean ± SD: 0.0269 ± 0.0182 ng/mL
2 mg/day, First cycle Day 20, 24 hr after application
  Plasma concentration of 4-hydroxy tamoxifen, Mean ± SD: 0.044 ± 0.0292 ng/mL
2 mg/day, First cycle Day 25, 24 hr after application
  Plasma concentration of 4-hydroxy tamoxifen, Mean ± SD: 0.0454 ± 0.031 ng/mL
2 mg/day, Second cycle Day 7, 24 hr after application
  Plasma concentration of 4-hydroxy tamoxifen, Mean ± SD: 0.0422 ± 0.0248 ng/mL
2 mg/day, Second cycle Day 20, 24 hr after application
  Plasma concentration of 4-hydroxy tamoxifen, Mean ± SD: 0.0389 ± 0.0271 ng/mL
2 mg/day, Second cycle Day 25, 0 hr (24 hours after Day 24 application, prior to final application)
  Plasma concentration of 4-hydroxy tamoxifen, Mean ± SD: 0.0432 ± 0.0277 ng/mL
2 mg/day, Second cycle Day 25, 0.5 hr after application
  Plasma concentration of 4-hydroxy tamoxifen, Mean ± SD: 0.0445 ± 0.0299 ng/mL
2 mg/day, Second cycle Day 25, 1 hr after application
  Plasma concentration of 4-hydroxy tamoxifen, Mean ± SD: 0.0405 ± 0.0251 ng/mL
2 mg/day, Second cycle Day 25, 1.5 hr after application
  Plasma concentration of 4-hydroxy tamoxifen, Mean ± SD: 0.0368 ± 0.0211 ng/mL
2 mg/day, Second cycle Day 25, 2 hr after application
  Plasma concentration of 4-hydroxy tamoxifen, Mean ± SD: 0.0368 ± 0.0216 ng/mL
2 mg/day, Second cycle Day 25, 3 hr after application
  Plasma concentration of 4-hydroxy tamoxifen, Mean ± SD: 0.0361 ± 0.0206 ng/mL
2 mg/day, Second cycle Day 25, 4 hr after application
  Plasma concentration of 4-hydroxy tamoxifen, Mean ± SD: 0.0381 ± 0.0212 ng/mL
2 mg/day, Second cycle Day 25, 6 hr after application
  Plasma concentration of 4-hydroxy tamoxifen, Mean ± SD: 0.041 ± 0.0291 ng/mL
2 mg/day, Second cycle Day 25, 12 hr after application
  Plasma concentration of 4-hydroxy tamoxifen, Mean ± SD: 0.0451 ± 0.0306 ng/mL
2 mg/day, Second cycle Day 25, 18 hr after application
  Plasma concentration of 4-hydroxy tamoxifen, Mean ± SD: 0.0398 ± 0.0255 ng/mL
2 mg/day, Second cycle Day 26, 24 hr after last application
  Plasma concentration of 4-hydroxy tamoxifen, Mean ± SD: 0.044 ± 0.033 ng/mL
2 mg/day, Second cycle Day 26, 36 hr after last application
  Plasma concentration of 4-hydroxy tamoxifen, Mean ± SD: 0.0421 ± 0.0315 ng/mL
2 mg/day, Second cycle Day 27, 48 hr after last application
  Plasma concentration of 4-hydroxy tamoxifen, Mean ± SD: 0.0381 ± 0.0253 ng/mL
2 mg/day, Second cycle Day 28, 72 hr after last application
  Plasma concentration of 4-hydroxy tamoxifen, Mean ± SD: 0.0332 ± 0.0222 ng/mL
2 mg/day
  T(1stC < LOQ), first timepoint at which the plasma concentration was below the limit of quantification, Mean ± SD: 326 ± 97 h
  AUC0-24, Mean ± SD: 0.998 ± 0.653 ng·h/mL
  Cav = AUC0-24/24, Mean ± SD: 0.0416 ± 0.0272 ng/mL
  Cmax, Mean ± SD: 0.0516 ± 0.0317 ng/mL
  t1/2, Range: (49-101) hr
  tmax, Mean ± SD: 11.8 ± 12.3 h
2 mg/day, after the second cycle, +5 days
  Plasma concentration of 4-hydroxy tamoxifen, Mean ± SD: 0.0204 ± 0.0173 ng/mL
2 mg/day, after the second cycle, +8 days
  Plasma concentration of 4-hydroxy tamoxifen, Mean ± SD: 0.0108 ± 0.0134 ng/mL
2 mg/day, after the second cycle, +12 days
  Plasma concentration of 4-hydroxy tamoxifen, Range: (0-30.4) pg/mL
72 hours after the last gel application
  plasma concentrations after the last gel application: remained detectable
Single 0.5 mg dose
  plasma concentrations of 4-hydroxy tamoxifen after a single dose: did not produce detectable plasma concentrations
Single dose of 1 mg
  patients with detectable plasma concentrations (>5 pg/mL): 6 of 12
Topical application, 0.5-2 mg/day
  plasma concentrations of 4-hydroxy tamoxifen compared with typical estradiol concentrations: < 0.08 ng/mL
